One data set deals with Dactylogyrus vastator. Put plainly: Bath treatment of Dactylogyrus infected goldfish. The note with it: bath 1.5 mg/L, 48 hours. The data set is classed as in vivo, goldfish (Carassius auratus). Here is the method: (R)-praziquantel Form B was tested for use in treating fish parasites. Specifically, the effect of bath treatment of monogenean Dactylogyrus infected goldfish (Carassius auratus) was investigated. […] Two days after treatment, the number of attached parasites in whole gills of each fish was counted. Reduction rate=(average survival of worms in the blank control group−average survival of worms in the administration group)/average survival of worms in the blank control group×100%.

A short description of data set [1]: Long-term stability of (R)-praziquantel Form B API. The note with it: for Appearance / Assay(Anhydrous basis) / Chiral Purity / Purity / Related Substances, largest single impurity (RRT = 0.60) / Related Substances, total impurities / XRPD Characterization / Water Content: 25° C., 60% relative humidity; for Water Content: Karl Fischer. The data set is classed as physicochemical. Here is the method: Accurately weigh about 0.1-0.5 g of sample of Form B and transfer it to KF titrator container (aldehyde ketone Volumetric method), measure the samples according to USP<921>. The active pharmaceutical ingredient (API) of Form B was stored for 18 months under different storage conditions: 25° C. and 60% relative humidity, 30° C. and 65% relative humidity, and 40° C. and 75% relative humidity, in a sealed and open condition. […] In some embodiments, under various storage conditions the anhydrous API provided herein can be stable and water content controlled under 0.5% and monitored by KF for at least, or at least about, 3 months, 6 months, 9 months, 12 months, 18 months, 24 months and 36 months. For example, under storage conditions of 25° C. and 60% relative humidity, the tablets and API provided herein can be stable for at least, or at least about, 3 months, 6 months, 9 months, 12 months and 18 months.

Data set [2] can be described thus: Accelerated solid state stability of anhydrate (Form B) and hemihydrate (R)-praziquantel, open and closed condition. The data set is classed as physicochemical. On the procedure:
The Accelerated Solid State Stability of the Anhydrate (Form B) and Hemihydrate (R)-Praziquantel in an Open and Closed Condition […] The accelerated solid-state stability of the anhydrate and hemihydrate (R)-praziquantel was determined by storing approximately 1.0 g of the material in a glass dish at a) the anhydrate at 45° C./75% (RH), closed, for 3 months. and b) 45° C./75% Relative Humidity (RH), open exposure condition, for 3 months. The material was assayed by KF, TGA and HPLC for final content and degradation products.

A short description of data set [3]: Physicochemical characterization of Form B (hygroscopicity).
The conditions of data set [4]: highest concentration of 10 mg/L. Here is the method:
Goldfish were acclimatized to 22° C. water (pH 7˜7.5, dissolved oxygen>5 mL/L) and were challenged with Dactylogyrus vastator. When infection rate and infection intensity reached 100% and over 10 parasite/whole gills of each fish within about 10 days, the fish were then treated with various concentrations of the (R)-praziquantel Form B or praziquantel for 48 hours by bath. Infected fish […] were used as a control group. 20 infected fish were placed per concentration for each treatment.

For the next data set, the system named is Neobenedenia melleni. In words: Antiparasitic activity of medicated feed in infected yellow croaker. The data set is classed as in vivo, large yellow croaker (Larimichthys crocea). As to conditions: for Infectivity: Day 3. From the text: The purpose of this experiment was to evaluate palatability and efficacy of (R)-praziquantel Form B (R-PZQ) against Monogenean trematode infection (Neobenedenia melleni) in large yellow croaker (Larimichthys crocea). Praziquantel (PZQ) was used as a positive control.
All experimental yellow croakers (about 50-75 g BW/fish) were infected with Neobenedenia melleni, and the average infection intensity was 100-120 parasites/fish.
Fish were fed 2 times a day (morning and afternoon) at up to 4% BW per day. The medicated granular feed was prepared as descripted under section “LIQUID COMPOSITIONS AND SOLID FORMULATIONS CONTAINING (R)-PRAZIQUANTEL FORM B FOR AQUACULTURE AND FISH”. Briefly, the powders of (R)-praziquantel Form B ([…]) or praziquantel (PZQ) were mixed with 4% (v/v) squid oil. The resulting squid oil was subsequently top-dressed onto commercial feed granules. Control feed was prepared by top-dressing with 4% squid oil onto the feed granules without containing the compounds.
During treatment, amount and time to consume the medicated (or control) feed by the fishes in each group were observed and scored for palatability as poor (+) to excellent (+++++). Two days after dosing (Day 3), each fish was soaked in water individually and the number of parasites was recorded separately.

For data set [5] the following is noted: at the same dose level; cited from earlier work.
The conditions of data set [6]: rabbit, in vivo; cited from earlier work.
The test system of another data set is isolated rat atria. As to conditions: cited from earlier work.
For data set [7] the following is noted: cited from earlier work.
Where [8] appears, read: Closed condition, 45° C./75% RH, 3 months.
[9] abbreviates: Open, 45° C., RH75%, T3 (3 months).
The mark [10] stands for this setting: Opened condition, 45° C./75% RH, 3 months.
Where [11] appears, read: Sealed, 45° C., RH75%, T3 (3 months).
The mark [12] stands for this setting: medicated feed 37 mg/kg × 2 days.
Setting [13] is: medicated feed 75 mg/kg × 2 days.

Regarding `O=C(C1CCCCC1)N1CC(=O)N2CCc3ccccc3[C@@H]2C1` [(R)-praziquantel Form B, (R)-2-(cyclohexanecarbonyl)-2,3,6,7-tetrahydro-1H-pyrazino[2,1-a] isoquinolin-4(11bH)-one], in the data set on Dactylogyrus vastator, the Infection rate amounted to 100% and the Worm reduction was 98%. For the same compound, the “Storage stability of API” value in data set [1] (18 months, 25° C./60% RH, 30° C./65% RH, 40° C./75% RH, sealed and open) is on record as “good stability”. In data set [1] (18 M), the Appearance result is “White solid”, the “Assay(Anhydrous basis)” value was determined as 101.00%, the “Chiral Purity” value is listed as 100.00% and the Purity was 99.90%. In addition, in data set [1] (18 M), the “Related Substances, largest single impurity (RRT = 0.60)” value was “RRT = 0.60: 0.03%”; the “Related Substances, total impurities” value is reported as 0.11%; the “XRPD Characterization” value is on record as “Conforms”; the “Water Content” value is on record as 0.27%. Besides, in [1] (Initial (0 M)), the Appearance result is reported as “White solid”, the “Assay(Anhydrous basis)” value is reported as 99.80%, the “Chiral Purity” value amounted to 100.00% and the Purity stood at 99.90%. Further, in [1] (Initial (0 M)), the “Related Substances, largest single impurity (RRT = 0.60)” value is listed as “RRT = 0.60: 0.04%”; the “Related Substances, total impurities” value was found to be 0.10%; the “XRPD Characterization” value is “Conforms”; the “Water Content” value was found to be 0.50%. Besides, in [2] (setting [8]), the “Degradation (HPLC)” value was “no significant degradation observed” and the “Water uptake (KF)” value is recorded as not above 0.3%. The “Water content (KF)” value in data set [2] (Open, 45° C., RH75%, T0, listed as Anhydrate) was found to be 1.30%. Further, in data set [2] (Open, 45° C., RH75%, T0, listed as anhydrate), the “Water content (KF)” value worked out at 1.3%. Besides, the “Impurities by HPLC, RRT 0.6” value in data set [2] (setting [9]) is “RRT 0.6: 0.04%”. Further, the “Water content (KF)” value in data set [2] (Open, 45° C., RH75%, T3 (3 months), listed as Anhydrate) was determined as 2.50%. For the same compound, the “Water content (KF)” value in [2] (Open, 45° C., RH75%, T3 (3 months), listed as anhydrate) is recorded as “about 2.5%”. For the same compound, in data set [2] (setting [10]), the “Degradation (HPLC)” value is given as “no significant degradation observed” and the “Impurity peaks found (HPLC)” value is on record as “none of impurity peak found”. Besides, the “Water content (KF)” value in [2] (Sealed, 45° C., RH75%, T0) came to 0.24%. Further, in data set [2] (setting [11]), the “Impurities by HPLC, RRT 0.6” value was “RRT 0.6: 0.04%” and the “Water content (KF)” value turned out to be 0.32%. Further, the Hygroscopicity entry in [3] is listed as “slightly hygroscopic”. Besides, in data set [4], the “Toxic effect in the treated fish” value is reported as “no toxic effect”. Moreover, in the data set on Neobenedenia melleni (setting [12]), the Mortality is given as 0% and the Infectivity is 35%. In the data set with Neobenedenia melleni (setting [13]), this compound gave a Mortality of 0% and an Infectivity of 6%. Moreover, the Antiparasitic efficacy entry in the data set on Neobenedenia melleni (oral treatment) is “dose dependent and superior to PZQ”.
In the data set on Dactylogyrus vastator, `O=C(C1CCCCC1)N1CC(=O)N2CCc3ccccc3C2C1` (racemic) [Praziquantel, reference compound] registered an Infection rate of 100% and a Worm reduction of 45%. In addition, in the data set on Neobenedenia melleni (setting [13]), the Mortality was found to be 3% and the Infectivity was 54%.
In the case of `O=C(C1CCCCC1)N1CC(=O)N2CCc3ccccc3[C@@H]2C1` [(R)-praziquantel], in data set [5], the Anthelmintic efficacy entry is “better than that of praziquantel”. For the same compound, the Cardiac toxicity entry (in [6]; in the data set with isolated rat atria) was “lower cardiac toxicity than (S)-praziquantel” each time. The Observed side effects result in data set [7] (after oral administration (drowsiness, gastric nausea or photosensitivity rash)) was “relatively mild”. Further, the Serious adverse reactions entry in [7] (after oral administration) is on record as “No serious adverse reactions”.
Turning to `O.O=C(C1CCCCC1)N1CC(=O)N2CCc3ccccc3[C@@H]2C1.O=C(C1CCCCC1)N1CC(=O)N2CCc3ccccc3[C@@H]2C1` [Hemihydrate, reference compound], the “Water content (KF)” value in [2] (Open, 45° C., RH75%, T0) came out at 2.80%. For the same compound, in [2] (setting [9]), the “Impurities by HPLC, RRT 0.6” value is recorded as “RRT0.6: 0.17%,”; the “Impurities by HPLC, RRT 0.9” value was “RRT0.9: 0.13%”; the “Water content (KF)” value was determined as 2.50%. Besides, in data set [2] (setting [10]), the “Impurity peaks found (HPLC)” value was “two” and the Percent total impurities entry was “exceed 0.3%”.
Take `O=C(C1CCCCC1)N1CC(=O)N2CCc3ccccc3[C@H]2C1` [(S)-praziquantel, reference compound]: the Anthelmintic efficacy result in data set [5] is on record as “almost no activity”.

Source of the values: patent publication US20230381173A1, “METHODS AND PHARMACEUTICAL COMPOSITION FOR TREATING DISEASES” (TONGLI BIOMEDICAL CO. LTD., priority 2021, published 2023).
